Test results: patent US12661308B2, “Antimicrobial AZO compounds and uses thereof” (The Regents Of The University Of Colorado, A Body Corporate, priority 2019, dated 2026)
Entries after “also recorded” stand apart in the source; their conditions may differ.

Legend:
S. mutans [1] = assay: Detachment study of S. mutans from OH-AAZO coated substrate with and without light (Example 2); assay type: cell-based, Streptococcus mutans; conditions: 50 mg/mL coating
Procedure: In this Example, detachment of S. mutans from a polymeric substrate coated with a 50 mg/mL OH-AAZO solution was evaluated. Four conditions were evaluated. The first is where the polymeric substrate is coated with OH-AAZO and exposed to light to produce a photofluidization effect due to the rapid trans cis isomerization (Azo, light or AL). The second is where the polymeric substrate is coated with OH-AAZO and not exposed to light (Azo, no light or ANL). The third is where the polymeric substrate is not coated with OH-AAZO and is exposed to light (no Azo, light or NAL). The fourth is where the polymeric substrate is not coated with OH-AAZO and is not exposed to light (no Azo, no light or NANL).

[2] = test system: L929 mouse epithelial cells; assay: Cytotoxicity study, MTT (Example 4); assay type: cell-based; conditions: 50 mg/mL coated substrates
Procedure: Cytotoxicity studies were performed as described previously. Riss et al., Cell Viability Assays, (Promega). Briefly, L929 mouse epithelial cells were suspended in cell culture media (DMEM, 10% FBS, 1% penicillin streptomycin) to a final concentration of 1.06×10^5 cells/mL. 1 mL of the suspension was added to each well in a 24-well plate containing the substrates and allowed to grow to confluence. Cell growth was monitored via a phase contrast inverted microscope (Leica, WLD MPS32, Germany). Once confluent, the media was aspirated off, and 500 μL of a 1 mg/mL solution of MTT reagent in DMEM media was added to each well. The plate was incubated for 4 h, and 500 μL of 20% SDS in 50% DMF was added to each well containing the MTT reagent. The plate was incubated for an additional 24 h, then removed and analyzed by an absorbance reading at λ=570 nm (FIG. 10).

[3] = test system: A. actinomycetemcomitans (ATCC 43718) biofilm; assay: Biofilm growth study, A. actinomycetemcomitans; assay type: cell-based, Aggregatibacter actinomycetemcomitans; conditions: 50 mg/mL coated substrate, 24 h time-period
Procedure: S. oralis and A. actinomycetemcomitans were streaked on a BHI agar plate and incubated at 37° C. and 5% CO2 for 48 h. An isolated colony was inoculated in 5 mL BHI media for 12 h under the same incubation conditions, followed by a 1:10 dilution in BHI media in a 96-well plate containing the substrates of interest. […]
Following biofilm growth in the 96-well plate, the substrates were aseptically removed from the 96-well plate and placed in a vial containing 5 mL of 1× PBS solution. The vials were sonicated in a water bath for 10 min at 45° C., and the wells that previously contained the substrates were briefly sonicated using a probe sonicator (3 W RMS output) for 10 s per well. 200 μL aliquots of the sonicated PBS solution were placed in a 96-well plate and diluted 1:10 in each subsequent row. 20 μL aliquots of the sonicated media wells were placed in a 96-well plate containing 180 μL of PBS solution and diluted 1:10 in each subsequent row. Each column was then plated at a volume of 10 μL on a BHI agar plate in triplicate. The plates were then incubated at 37° C. and 5% CO2 for 48 h. The CFUs on each plate were counted in order to quantify the amount of biofilm remaining on the surface of the substrate and the bacteria remaining in the media after the removal of the substrate using the following equations: […]

[4] = test system: S. agalactiae (Group B strep, GBS); assay: Growth study, S. agalactiae (Group B strep); assay type: cell-based, Streptococcus agalactiae; conditions: 50 mg/ML coated substrates, BHI media, 24 h time-period
Procedure: A single bacterial colony was inoculated in 4 mL BHI media. The colony was grown to mid-log phase (to approximately OD600=0.4), statically at 37° C., which for was approximately 4 hours for the S. agalactiae GBS, approximately 11 hours for the S. pyogenes GAS, and approximately 6 hours for the S. pneumaoniae. They were diluted 1:5 in 80% glycerol (in water) solution (4 parts culture, 1 part glycerol, for a final glycerol concentration of 16%). In a 96-well plate, each was diluted to 1:100 resulting in a final concentration of 1×10^6 CFU/mL and grown at 37° C. with 5% CO2.

S. mutans [5] = assay: Kill curve kinetic study of S. mutans in media surrounding the coated substrate; assay type: cell-based, Streptococcus mutans
Procedure: FIG. 13 are images from a complete plating of media of S. mutans in contact with OH-AAZO-coated substrates at different timepoints following seeding. The media sampled shown in FIG. 13 (A) at t=0 h was serial diluted as described in Example 4 (below) and gave a total CFU count of (8.0±3.2)×10^6 CFUs. The media sampled shown in FIG. 13 (B) at t=4 h was streaked across the entire plate and gave a total CFU count of 8 CFUs. The media sampled shown in FIG. 13 (C) at t=24 h was streaked across the entire plate and gave a total CFU count of 0 CFUs.
We sampled aliquots of the media containing S. mutans surrounding the OH-AAZO substrate at different time points (FIG. 4). At t=0, S. mutans colonies (1×10^6 CFUs) were introduced to the OH-AAZO coated substrate. At t=4 h, the CFU count in the well was reduced 2-log, and by t=6 h, the CFU count had reduced to zero.

S. mutans [6] = assay: DIBAC4(3) membrane potential assay; assay type: cell-based, Streptococcus mutans
Procedure: Membrane potential assays were performed as described by Wu et al. with minor modifications. Wu et al., Antibacterial activity and membrane-disruptive mechanism of 3-p-trans-coumaroyl-2-hydroxyquinic acid, a novel phenolic compound from pine needles of Cedrus deodara, against Staphylococcus aureus, Molecules (2016), 21(8):1-12. S. mutans bacteria grown for 24 h in BHI broth were inoculated in a 96-well plate as described above. The plate was incubated for 8 h at 37° C. and 5% CO2. 2 μL of 0.1 mg/mL DIBAC4 (3) solution in DMSO was added to each well. The plate was then incubated in the dark overnight. The fluorescence reading was taken in a plate reader at λexcitation=492 nm and λemission=515 nm. Fluorescence values in bacteria-containing wells were normalized against fluorescence values containing the same substrate but no bacteria.

`C=CC(=O)Oc1ccccc1/N=N/c1ccccc1O` [OH-AAZO, phenolic acrylated azobenzene] was tested, and the S. mutans growth (S. mutans [1]; exposed to light (AL), over 48 hr) was “no growth”, the S. mutans growth (S. mutans [1]; no light (ANL), first 33 hr) was “minimal growth” and the S. mutans growth (S. mutans [1]; no light (ANL), t=48 hr) was “some minimal biofilm growth”. The cytocompatibility [2] was “cytocompatible”, the “antibacterial effect on A. actinomycetemcomitans biofilm (CFUs)” value [3] was “no discernable antibacterial effect or reduction in CFUs” and the “S. agalactiae growth on coated substrate and in media” value [4] was “did not grow on the coated substrate nor in the media”. For the same molecule, the “total CFU count, complete plating of media” value (S. mutans [5]; t=0 h, serial diluted) was “(8.0±3.2)×10^6 CFUs”, the “reduction of CFU count in the well” value (S. mutans [5]; t=4 h, from 1×10^6 CFUs at t=0) was 2 log and the “total CFU count, complete plating of media” value (S. mutans [5]; t=4 h, streaked across the entire plate) was 8 CFUs. For the same molecule, the “S. mutans CFU count in the media” value (S. mutans [5]; t=6 h) was “zero and complete S. mutans death and absence of S. mutans”, the “DIBAC4(3) fluorescence of S. mutans” value (S. mutans [6]; 5 mg/mL coated substrate, relative to uncoated control) was “slight reduction” and the “DIBAC4(3) fluorescence of S. mutans” value (S. mutans [6]; 25 mg/mL coated substrate) was “drop in fluorescence to zero”. For the same molecule, the “DIBAC4(3) fluorescence of S. mutans” value (S. mutans [6]; 50 mg/mL coated substrate) was “drop in fluorescence to zero; also recorded: dropped to zero”.
